Earlier results in patent publication US12691128B2, “Methods of treating eosinophilic esophagitis and reducing candidiasis” (Ellodi Pharmaceuticals, L.P., priority 2019, dated 2026).
Like-named read-outs stand apart in the source and are kept apart here.

Key:
glucocorticoid receptor = target: T1, glucocorticoid receptor (Homo sapiens, UniProt P04150); set-up: reference not given here
T1 sequence (P04150 1-777): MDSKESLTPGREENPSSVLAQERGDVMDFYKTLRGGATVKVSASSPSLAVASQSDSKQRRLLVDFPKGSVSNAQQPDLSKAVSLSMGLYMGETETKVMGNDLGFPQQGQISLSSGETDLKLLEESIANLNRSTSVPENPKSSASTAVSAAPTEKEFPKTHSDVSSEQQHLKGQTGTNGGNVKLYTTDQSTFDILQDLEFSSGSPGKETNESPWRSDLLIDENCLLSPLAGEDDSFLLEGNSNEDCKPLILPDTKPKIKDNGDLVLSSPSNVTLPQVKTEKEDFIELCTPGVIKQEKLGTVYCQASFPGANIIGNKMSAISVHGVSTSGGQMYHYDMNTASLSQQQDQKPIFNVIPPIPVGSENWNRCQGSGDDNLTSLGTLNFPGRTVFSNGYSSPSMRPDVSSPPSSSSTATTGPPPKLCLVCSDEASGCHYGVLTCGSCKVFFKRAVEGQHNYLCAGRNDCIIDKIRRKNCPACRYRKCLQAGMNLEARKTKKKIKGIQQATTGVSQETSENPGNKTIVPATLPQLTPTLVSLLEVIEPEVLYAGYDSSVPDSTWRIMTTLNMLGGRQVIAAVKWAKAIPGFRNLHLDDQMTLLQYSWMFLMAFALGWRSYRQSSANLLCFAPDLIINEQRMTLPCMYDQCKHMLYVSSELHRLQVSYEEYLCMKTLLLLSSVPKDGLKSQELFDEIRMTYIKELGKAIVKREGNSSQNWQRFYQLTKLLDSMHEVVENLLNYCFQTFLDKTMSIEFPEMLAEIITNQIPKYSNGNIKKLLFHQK

[1] = target: cytochrome (CYP) isoenzyme 2C9 (Homo sapiens, UniProt P11712)
Chain of cytochrome (CYP) isoenzyme 2C9 (P11712 whole entry): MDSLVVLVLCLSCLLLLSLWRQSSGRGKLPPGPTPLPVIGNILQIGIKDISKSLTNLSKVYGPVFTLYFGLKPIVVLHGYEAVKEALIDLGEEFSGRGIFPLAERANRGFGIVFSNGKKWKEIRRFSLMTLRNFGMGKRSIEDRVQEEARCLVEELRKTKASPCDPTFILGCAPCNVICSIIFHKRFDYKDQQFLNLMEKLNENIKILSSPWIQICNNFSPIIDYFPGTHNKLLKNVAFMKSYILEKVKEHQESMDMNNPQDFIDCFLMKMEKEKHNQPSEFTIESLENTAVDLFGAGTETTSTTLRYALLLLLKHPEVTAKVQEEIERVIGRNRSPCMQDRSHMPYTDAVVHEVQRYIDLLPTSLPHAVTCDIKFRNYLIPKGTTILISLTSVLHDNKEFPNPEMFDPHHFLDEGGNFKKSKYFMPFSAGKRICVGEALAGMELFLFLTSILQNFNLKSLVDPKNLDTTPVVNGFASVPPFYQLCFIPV

CYP3A4 = CYP3A4 (Homo sapiens, UniProt P08684)
Chain of CYP3A4 (P08684 whole entry): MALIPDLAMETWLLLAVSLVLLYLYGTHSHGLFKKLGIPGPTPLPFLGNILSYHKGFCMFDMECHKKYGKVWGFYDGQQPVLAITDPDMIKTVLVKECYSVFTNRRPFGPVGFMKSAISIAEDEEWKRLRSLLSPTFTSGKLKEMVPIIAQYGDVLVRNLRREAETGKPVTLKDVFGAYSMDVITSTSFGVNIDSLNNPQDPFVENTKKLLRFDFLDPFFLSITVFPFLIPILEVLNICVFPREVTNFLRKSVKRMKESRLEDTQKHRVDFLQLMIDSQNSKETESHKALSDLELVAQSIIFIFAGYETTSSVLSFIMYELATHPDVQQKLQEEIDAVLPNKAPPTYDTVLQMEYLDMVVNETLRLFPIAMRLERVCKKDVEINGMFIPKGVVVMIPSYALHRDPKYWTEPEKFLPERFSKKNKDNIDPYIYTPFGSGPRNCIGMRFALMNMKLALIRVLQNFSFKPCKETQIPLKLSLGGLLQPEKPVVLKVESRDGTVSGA

[2] = reported

SMILES: CC1(C)O[C@@H]2C[C@H]3[C@@H]4CCC5=CC(=O)C=C[C@]5(C)[C@@]4(F)[C@@H](O)C[C@]3(C)[C@]2(C(=O)CO)O1 [Triamicinolone acetonide]
- Relative Glucocorticoid Receptor Binding Affinity (glucocorticoid receptor): 233

SMILES: CC1(C)O[C@@H]2C[C@H]3[C@@H]4C[C@H](F)C5=CC(=O)C=C[C@]5(C)[C@H]4[C@@H](O)C[C@]3(C)[C@]2(C(=O)CO)O1 [Flunisolide]
- Relative Glucocorticoid Receptor Binding Affinity (glucocorticoid receptor): 190

SMILES: OC(Cn1cncn1)(Cn1cncn1)c1ccc(F)cc1F [fluconazole]
- Inhibition of cytochrome (CYP) isoenzyme 2C9 [1]: potent inhibitor
- Inhibition of CYP3A4 (CYP3A4): moderate inhibitor

SMILES: C[C@]12C=CC(=O)C=C1CC[C@@H]1[C@@H]2[C@@H](O)C[C@@]2(C)[C@H]1C[C@H]1O[C@@H](C3CCCCC3)O[C@]12C(=O)CO [des-CIC]
- Relative Glucocorticoid Receptor Binding Affinity (glucocorticoid receptor): 12 (1200)

SMILES: CCC(=O)O[C@]1(C(=O)SCF)[C@H](C)C[C@H]2[C@@H]3C[C@H](F)C4=CC(=O)C=C[C@]4(C)[C@@]3(F)[C@@H](O)C[C@@]21C [Fluticasone propionate, S-(fluoromethyl)-6α,9-difluoro-11β, 17-dihydroxy-16α-methyl-3-oxoandrosta-1,4-diene-17β-carbothioate, 17-propanoate]
- Relative Glucocorticoid Receptor Binding Affinity (glucocorticoid receptor): 1775
- Solubility (acetone, dichloromethane, ethyl acetate and chloroform): sparingly soluble
- Solubility (dimethyl sulfoxide and dimethylformamide): freely soluble
- Solubility (methanol and 95% ethanol): slightly soluble
- Solubility (water): practically insoluble
- Oral bioavailability [2]: less than 1%

SMILES: C[C@]12C=CC(=O)C=C1CC[C@@H]1[C@@H]2[C@@H](O)C[C@@]2(C)[C@H]1CC[C@]2(O)C(=O)CO [Prednisolone]
- Relative Glucocorticoid Receptor Binding Affinity (glucocorticoid receptor): 12
